Measured values from patent publication US20040058957A1, “Benzothiophene derivatives and herbicidal compositions containing the same” (priority 2000, published 2004).

How the values were obtained:
Scirpus juncoides [1] = assay: Submersion test, treatment 10 days after transplantation: herbicidal effect; type: in vivo; conditions: rated 30 days after application
Experimental: (§1) A mixture consisting of 57 parts by weight of talc and 40 parts by weight of bentonite as carrier and 3 parts by weight of sodium alkylbenzenesulfonate as surfactant was pulverized and mixed uniformly to obtain a carrier for wettable powder. Each herbicidal composition was prepared by uniformly pulverizing and mixing 90 parts by weight of the carrier for wettable powder and 10 parts by weight of the benzothiophene derivative produced in each example.
(§2) Seeds of Scirpus juncoides were sowed onto paddy field soil in a Wagner pot of 1/2000 are. Then, rice seedlings of 2.5 leaf stage were transplanted in the soil. Water was pored into the pot so as to submerge the soil at a depth of 3 cm. The pot was placed in a greenhouse maintained at 20 to 25° C. for vegetation. After 10 days from transplantation of the rice seedlings, a predetermined amount of the herbicidal composition prepared in the step [1] was applied to the pot. After 30 days from the application of the herbicidal composition, the herbicidal effect and injury to the paddy rice were determined.
(§3) The herbicidal effect and the injury to crops in the above tests (1) and (2) were evaluated based on the following ratings.
(§4) The degree of weed control (%) was calculated from the weights of the above-ground parts of fresh weeds in the treated area and the untreated area using the following equation:
(§5) Degree of weed control (%)=[1−(weight of weeds in treated area)/(weight of weeds in untreated area)]×100
(§6) The herbicidal effect was determined according to the following ratings: […]

paddy rice = assay: Submersion test, treatment 3 days after transplantation: injury to paddy rice; type: in vivo; set-up: key: 0: No injury; 1: Substantially no injury; 2: Slight injury; 3: Some injury; 4: Remarkable injury; 5: Almost all crops dead; conditions: rated 30 days after application
Experimental: A mixture consisting of 57 parts by weight of talc and 40 parts by weight of bentonite as carrier and 3 parts by weight of sodium alkylbenzenesulfonate as surfactant was pulverized and mixed uniformly to obtain a carrier for wettable powder. […] Then, rice seedlings of 2.5 leaf stage were transplanted in the soil. Water was pored into the pot so as to submerge the soil at a depth of 3 cm. The pot was placed in a greenhouse maintained at 20 to 25° C. for vegetation. […] After 30 days from the application of the herbicidal composition, the herbicidal effect and injury to the paddy rice were determined. […] The injury to crops was evaluated according to the following ratings: [table]

Scirpus juncoides [2] = assay: Submersion test, treatment 3 days after transplantation: herbicidal effect; type: in vivo; conditions: rated 30 days after application
Experimental: as §1
as §2, with “3” for “10”
as §3, §4, §5, §6

Row | Compound | melting point [°C] | Herbicidal effect Scirpus juncoides (Scirpus juncoides [1]; application rate 100 g/ha) | Herbicidal effect Scirpus juncoides (Scirpus juncoides [1]; application rate 200 g/ha) | Injury paddy rice (paddy rice; application rate 100 g/ha) | Injury paddy rice (paddy rice; application rate 200 g/ha) | Herbicidal effect Scirpus juncoides (Scirpus juncoides [2]; application rate 100 g/ha) | Herbicidal effect Scirpus juncoides (Scirpus juncoides [2]; application rate 200 g/ha)
1 | CSC1Cc2c(ccc(C(=O)C3C(=O)CCCC3=O)c2Cl)S1(=O)=O (stereo not shown) [Compound No. 1, 4-chloro-2-methylthio-5-(1,3-dioxocyclohex-2-yl)carbonyl-2,3-dihydrobenzothiophene 1,1-dioxide] | 174.7 to 175.1 | 5 (90% or higher (almost completely dead)) | 5 (90% or higher (almost completely dead)) | 0 | 0 | 5 (90% or higher (almost completely dead)) | 5 (90% or higher (almost completely dead))
2 | CSC1Cc2c(ccc(C(=O)C3=C(SCCOC(C)=O)CCCC3=O)c2Cl)S1(=O)=O (stereo not shown) [Compound No. 34, 4-chloro-2-methylthio-5-[3-(2-acetoxyethyl)thio-1-oxo-2-cyclohexen-2-yl]carbonyl-2,3-dihydrobenzothiophene 1,1-dioxide] |  | 4 (70% or higher but less than 90%) | 5 (90% or higher (almost completely dead)) | 0 | 0 | 4 (70% or higher but less than 90%) | 5 (90% or higher (almost completely dead))
3 | CSC1Cc2c(ccc(C(=O)C3=C(Sc4nccn4C)CCCC3=O)c2Cl)S1(=O)=O (stereo not shown) [Compound No. 35, 4-chloro-2-methylthio-5-[3-(1-methylimidazol-2-yl)thio-1-oxo-2-cyclohexen-2-yl]carbonyl-2,3-dihydrobenzothiophene 1,1-dioxide] |  | 4 (70% or higher but less than 90%) | 5 (90% or higher (almost completely dead)) | 0 | 0 | 4 (70% or higher but less than 90%) | 5 (90% or higher (almost completely dead))
4 | CCOC1=C(C(=O)c2ccc3c(c2Cl)CC(SC)S3(=O)=O)C(=O)CCC1 (stereo not shown) [Compound No. 37, 4-chloro-2-methylthio-5-(3-ethoxy-1-oxo-2-cyclohexen-2-yl)carbonyl-2,3-dihydrobenzothiophene 1,1-dioxide] |  | 5 (90% or higher (almost completely dead)) | 5 (90% or higher (almost completely dead)) | 0 | 0 | 5 (90% or higher (almost completely dead)) | 5 (90% or higher (almost completely dead))
5 | CSC1Cc2c(ccc(C(=O)C3=C(N4CCC=N4)CCCC3=O)c2Cl)S1(=O)=O (stereo not shown) [Compound No. 38, 4-chloro-2-methylthio-5-[3-(4,5-dihydropyrazol-1-yl)-1-oxo-2-cyclohexen-2-yl]carbonyl-2,3-dihydrobenzothiophene 1,1-dioxide] |  | 4 (70% or higher but less than 90%) | 5 (90% or higher (almost completely dead)) | 0 | 0 | 4 (70% or higher but less than 90%) | 5 (90% or higher (almost completely dead))
6 | CSC1Cc2c(ccc(C(=O)C3=C(n4cccn4)CCCC3=O)c2Cl)S1(=O)=O (stereo not shown) [Compound No. 39, 4-chloro-2-methylthio-5-[3-(pyrazol-1-yl)-1-oxo-2-cyclohexen-2-yl]carbonyl-2,3-dihydrobenzothiophene 1,1-dioxide] |  | 4 (70% or higher but less than 90%) | 5 (90% or higher (almost completely dead)) | 0 | 0 | 4 (70% or higher but less than 90%) | 5 (90% or higher (almost completely dead))
7 | CSC1Cc2c(ccc(C(=O)C3C(=O)CCCC3=O)c2Br)S1(=O)=O (stereo not shown) [Compound No. 41, 4-bromo-2-methylthio-5-(1,3-dioxocyclohex-2-yl)carbonyl-2,3-dihydrobenzothiophene 1,1-dioxide] |  | 5 (90% or higher (almost completely dead)) | 5 (90% or higher (almost completely dead)) | 0 | 0 | 5 (90% or higher (almost completely dead)) | 5 (90% or higher (almost completely dead))
8 | COCCSC1Cc2c(Cl)c(C(=O)C3C(=O)CCCC3=O)cc(C)c2S1(=O)=O (stereo not shown) [Compound No. 45, 4-chloro-7-methyl-2-(2-methoxyethyl)thio-5-(1,3-dioxocyclohex-2-yl)carbonyl-2,3-dihydrobenzothiophene 1,1-dioxide] |  | 5 (90% or higher (almost completely dead)) | 5 (90% or higher (almost completely dead)) | 0 | 0 | 5 (90% or higher (almost completely dead)) | 5 (90% or higher (almost completely dead))
9 | Cc1cc(C(=O)C2C(=O)CCCC2=O)c(Cl)c2c1S(=O)(=O)C(S(C)(=O)=O)C2 (stereo not shown) [Compound No. 46, 4-chloro-7-methyl-2-methanesulfonyl-5-(1,3-dioxocyclohex-2-yl)carbonyl-2,3-dihydrobenzothiophene 1,1-dioxide] |  | 4 (70% or higher but less than 90%) | 5 (90% or higher (almost completely dead)) | 0 | 0 | 5 (90% or higher (almost completely dead)) | 5 (90% or higher (almost completely dead))
10 | CSC1Cc2c(Cl)c(C(=O)C3=C(Cl)CCCC3=O)cc(C)c2S1(=O)=O (stereo not shown) [Compound No. 49, 4-chloro-7-methyl-2-methylthio-5-(3-chloro-1-oxo-2-cyclohexen-2-yl)carbonyl-2,3-dihydrobenzothiophene 1,1-dioxide] |  | 5 (90% or higher (almost completely dead)) | 5 (90% or higher (almost completely dead)) | 0 | 0 | 5 (90% or higher (almost completely dead)) | 5 (90% or higher (almost completely dead))
11 | CSC1Cc2c(Cl)c(C(=O)C3=C(SCCO)CCCC3=O)cc(C)c2S1(=O)=O (stereo not shown) [Compound No. 50, 4-chloro-7-methyl-2-methylthio-5-[3-(2-hydroxyethyl)thio-1-oxo-2-cyclohexen-2-yl]carbonyl-2,3-dihydrobenzothiophene 1,1-dioxide] |  | 5 (90% or higher (almost completely dead)) | 5 (90% or higher (almost completely dead)) | 0 | 0 | 5 (90% or higher (almost completely dead)) | 5 (90% or higher (almost completely dead))
12 | CSC1Cc2c(Cl)c(C(=O)C3=C(SCCOC(=O)CCl)CCCC3=O)cc(C)c2S1(=O)=O (stereo not shown) [Compound No. 51, 4-chloro-7-methyl-2-methylthio-5-[3-(2-chloroacetoxyethyl)thio-1-oxo-2-cyclohexen-2-yl]carbonyl-2,3-dihydrobenzothiophene 1,1-dioxide] |  | 4 (70% or higher but less than 90%) | 5 (90% or higher (almost completely dead)) | 0 | 0 | 4 (70% or higher but less than 90%) | 5 (90% or higher (almost completely dead))
13 | CSC1Cc2c(Cl)c(C(=O)C3=C(n4cccn4)CCCC3=O)cc(C)c2S1(=O)=O (stereo not shown) [Compound No. 52, 4-chloro-7-methyl-2-methylthio-5-[3-(pyrazol-1-yl) -1-oxo-2-cyclohexen-2-yl]carbonyl-2,3-dihydrobenzothiophene 1,1-dioxide] |  | 4 (70% or higher but less than 90%) | 5 (90% or higher (almost completely dead)) | 0 | 0 | 4 (70% or higher but less than 90%) | 5 (90% or higher (almost completely dead))
